According to publication PMC6271245, “Discovery of Gramine Derivatives That Inhibit the Early Stage of EV71 Replication in Vitro” (Molecules, 2014):
Converted amounts (≈) assume the structure as drawn. Like-named read-outs stand apart in the source and are kept apart here.

Assays:
[1] = system: EV71; experiment: Direct inactivation of virions (virucidal test), TCID50 titration; type: cell-based, Enterovirus 71; details: 10^4 TCID50 EV71 incubated with 20 µg/mL 4a, 40 µg/mL 4i, 80 µg/mL 4r or 4s for 24 h at 4 °C; data not shown
Procedure: Based on structure specificity, antiviral activity, and selectivity therapeutic index, compounds 4a, 4i, 4r and 4s were chosen for further investigation on modes of action against EV71 infection. To determine whether these gramine derivatives inactivated virions directly, 10^4 TCID50 (median tissue culture infective dose) of EV71 suspension was incubated with 20 µg/mL 4a, 40 µg/mL 4i, or 80 µg/mL 4r or 4s for 24 h at 4 °C; subsequently, the virus titers in the mixture were measured by inoculating 100-fold dilution of the mixtures beyond the effective concentrations of the compounds into the host cells. The TCID50 values were calculated by the Reed-Muench method based on the CPE observed on day 2 post inoculation (pi). […] Thus, these compounds appear not to be virucidal for the viruses tested.
(§1) The virus suspension, serially diluted 10-fold with DMEM containing 2% FBS, was inoculated to cells in a 96-well plate. After 1 h incubation at 37 °C in 5% CO2, unbinding virus was washed out and MM was added to the cells. After 2 days, the infected cells were monitored for cytopathic effects (CPEs). The virus titer was calculated by the Reed–Muench method.

[2] = system: Enterovirus 71 (EV71); experiment: Inhibition of EV71-induced cytopathogenicity (CPE) in Vero cells, MTT; type: cell-based; details: Enterovirus A, read-out: EC50 (µg/mL) Vero
Procedure: The antiviral activities of gramine and its derivatives against EV71 based on inhibition of virus-induced cytopathogenicity effects (CPEs) in African green monkey kidney cells (Vero) and rhabdomyosarcoma cells (RD) were examined. The cytotoxic effects were also evaluated. The inhibitory activities expressed as half maximal effective concentration (EC50) values and selectivity indexes (SI) for the target compounds are presented in Table 1, and the dose-dependent antiviral effects are shown in Figure 1A.
Figure 1 Gramine and its synthetic derivatives inhibited virus-induced CPE. (A) Vero cells were infected with 100 TCID50 of EV71 mixed with serial dilutions of tested compounds for 1.5 h at 37 °C; the inoculum was aspirated and cells were incubated with DMEM/tested compounds at 37 °C, 5% CO2 for 48 h pi. The viability of the cells was determined with an MTT assay; (B) Morphology image of Vero and RD cells treated with compounds 4a, 4i, 4r, and 4s for 48 h pi. (magnification, 20×).
The activity of compounds against EV71 was determined based on the inhibition of virus-induced cytopathogenicity effects (CPEs) in acutely infected cells. Vero and RD cells grown to 90% confluency in 96-well dishes were washed with phosphate buffered saline (PBS) and infected with 100 TCID50 of EV71 mixed with serial dilutions of tested compounds for 1.5 h at 37 °C. The inoculum was aspirated and cells were incubated with DMEM and test compounds at 37 °C, 5% CO2 for 48 h. The CPEs were observed microscopically and the viability of the cells was determined with a 3-(4,5-dimethylthiazol-2-yl)-2,5-diphenyltetrazolium bromide (MTT) assay. The concentrations required for the test compounds to achieve 50% protection from virus-induced cytopathogenicity (EC50) were determined. Adverse effects of these compounds on the host cells were also assessed by means of the MTT-method; by exposing uninfected cells to various concentrations of test compounds for 48 h at 37 °C, the viability of the cells was detected. The 50% cell cytotoxic concentrations (CC50) of compounds were calculated with the SPSS software (SPSS, Chicago, IL, USA). Selectivity indexes were calculated as the ratio of CC50: EC50.
Cell viability was assessed by an MTT assay, which functions based on the reduction of a MTT into formazan dye by active mitochondria. The cells were treated with 100 µL of MTT (1 mg/mL, Sigma, St. Louis, MO, USA) and incubated at 37 °C for 4 h. The reaction was blocked by DMSO and measured in a microplate reader (Bio-Tek Instruments, Winooski, VT, USA) at 492 nm. The untreated control was arbitrarily set as 100%.

[3] = system: EV71; experiment: Effect on EV71 release from RD cells; type: cell-based, Enterovirus 71; details: 10 µg/mL 4a, 20 µg/mL 4i, 40 µg/mL 4r or 4s after infection, supernatants and cells harvested together or separately at 12 h
Procedure: (§2) Figure 2 Analysis of modes of action against EV71 of gramine derivatives. Analysis of effective stage. The RD cells were treated with tested compounds before, simultaneously or after EV71 (100 TCID50) inoculation: antiviral effects were detected by measuring (A) cell viability and (B) progeny virus yields (10 µg/mL 4a, 20 µg/mL 4i, 40 µg/mL 4r and 4s) 48 h post infection; (C) Analysis of the effects on EV71 adsorption. Mock- or 10 µg/mL 4a, 20 µg/mL 4i, 40 µg/mL 4r and 4s-treated EV71 (10^4 TCID50) was spinoculated onto RD cells and adsorbed for 2 h; intracellular virus was subjected to titration using the TCID50 method; (D) Effects on EV71 release from RD cells. RD cells infected with 100 TCID50 of EV71 were incubated with 10 µg/mL 4a, 20 µg/mL 4i, 40 µg/mL 4r and 4s for 12 h, of both cells and supernatants (intra- and extracellular), or of cells or supernatants harvested separately for virus titration. […] Values represent the mean ± standard deviation of three independent experiments.
A possible effect of the compounds on viral release from cells was tested. The RD cells were treated with or without 10 µg/mL 4a, 20 µg/mL 4i, or 40 µg/mL 4r or 4s after EV71 infection, and the supernatants and cells were harvested together or separately for analysis of progeny virus yields at 12 h.
as §1

[4] = system: EV71; experiment: Effect on EV71 adsorption, intracellular virus titration; type: cell-based, Enterovirus 71; details: EV71 (10^4 TCID50) treated with 10 µg/mL 4a, 20 µg/mL 4i, 40 µg/mL 4r or 4s, spinoculated onto RD cells, adsorbed 2 h
Procedure: Mock- or 10 µg/mL 4a, 20 µg/mL 4i, or 40 µg/mL 4r or 4s-treated EV71 (10^4 TCID50) were spinoculated onto cells and adsorbed for 2 h. The infected cells were harvested following freeze–thaw cycles and then subjected to virus titration.
as §2, §1

[5] = system: EV71; experiment: Analysis of effective stage (treatment before, during or post infection) in RD cells; type: cell-based, Enterovirus 71; details: up to a concentration of 40 µg/mL
[6] = concentration for 50% protection from virus-induced cytopathogenicity, Vero cells, 100 TCID50 EV71, 48 h, MTT, mean ± SD of three experiments

Row | SMILES | virus titers of mixture with vs without compound (virucidal effect) [1] | EC50 [2, 6] | effect on release of EV71 from cells [3] | intracellular virus titer during virus attachment [4] | morphological cytotoxicity [5] | EC50 ([2]; EV71, Vero, 48 h)
1 | c1ccc(C(Nc2ccccn2)c2c[nH]c3ccccc23)cc1 (stereo not drawn) [Compound 4a] | No significant difference in virus titers | 12.7 ± 3.2 µg/mL (≈ 42.4 µM) | no effect on the release of EV71 | no significant decrease in virus titer | – | –
2 | Cn1cc(C(Nc2nc3ccccc3s2)c2ccccc2F)c2ccccc21 (stereo not drawn) [Compound 4r] | No significant difference in virus titers | 9.9 ± 1.4 µg/mL (≈ 25.5 µM) | no effect on the release of EV71 | no significant decrease in virus titer | no morphological cytotoxicity was observed | –
3 | Cn1cc(C(Nc2ccccn2)c2ccc(F)cc2)c2ccccc21 (stereo not drawn) [Compound 4i] | No significant difference in virus titers | 5.5 ± 1.6 µg/mL (≈ 16.6 µM) | no effect on the release of EV71 | no significant decrease in virus titer | – | –
4 | c1ccc(C(Nc2nc3ccccc3s2)c2c[nH]c3ccccc23)nc1 (stereo not drawn) [Compound 4s] | No significant difference in virus titers | – | no effect on the release of EV71 | no significant decrease in virus titer | no morphological cytotoxicity was observed | 7.6 ± 2.5 µg/mL (≈ 21.3 µM)
